The values below come from patent publication US11933866B2, “Magnetic resonance maps for analyzing brain tissue” (Tel HaShomer Medical Research Infrastructure and Services …, priority 2013, dated 2024).

In series [1] the test system is glioblastoma. Particulars: TMZ during radiotherapy and for six months post radiotherapy; cited from earlier work.
The test system of series [2] is glioblastoma. Particulars: glioblastoma patients at progression after standard therapy; results of 2 studies; cited from earlier work.
Series [3] has as its system cerebellar metastasis of breast cancer. Description: Delayed contrast extravasation MRI maps before and after Avastin treatment, patient case (Example 15). Type of series: in vivo, human. Particulars: one patient, 2 years after stereotactic radiosurgery; maps before vs after Avastin treatment. From the text: There is current dispute weather Avastin affects active tumor or only treatment effects.
A patient with cerebellar metastasis of breast cancer was recruited 2 years after stereotactic radiosurgery with suspected radiation necrosis.

The test system of a further series is recurrent GBM. Description: Conventional MRI and maps follow-up of a recurrent GBM patient on Bevacizumab (Example 3). Type of series: in vivo, human. Particulars: one patient, three months after initiation of Bevacizumab treatment. From the text:
Referring now to FIG. 8, a person with recurrent GBM was recruited 7 month after diagnosis prior to initiation of Bevacizumab treatment. At diagnosis the patients was operated on and received chemoradiation followed by TMZ. Six months later, at progression, the patient underwent a second resection and was recruited to the present Bevacizumab study 1 month after the second surgery, prior to initiation of the Bevacizumab treatment. At this point their enhancing lesion consisted of nearly 50% tumor according to the maps. […] Following this scan the patient was treated with re-irradiation (in parallel with continuing Bevacizumab) and was stabilized. […] The patient lived another ˜7 months after this last MRI scan.

For the molecule `Cn1nnc2c(C(N)=O)ncn2c1=O` [temozolomide], in the series on glioblastoma [1], the additional toxicity result is reported as “minimal additional toxicity”.
In the case of Bevacizumab, the tumor size entry in the series on glioblastoma [2] is recorded as “reduced tumor size in some glioblastoma patients”. Further, the “response of tumor and radiation necrosis components in the maps” value in series [3] is listed as “remarkable response of both components”. Besides, in the series with recurrent GBM, the “conventional MRI finding” value is listed as “showed improvement”. Also, the “blue/tumor volume in the maps” value in the series on recurrent GBM (consistent with clinical deterioration) is recorded as “significantly larger blue/tumor volume”.
